Source: US10993935B2, “Compositions and methods for treatment of lung infections” (priority 2018, dated 2021)
Structures can show the parent of a compound that is named as a salt.

How the values were obtained:
[1] = system: P. aeruginosa PAO581 (PAO1mucA25); test: NIH drug library screen for inhibition of growth, mucoidy and PalgD-lacZ colour; assay type: cell-based, Pseudomonas aeruginosa; conditions: for Growth 2 μM / Mucoidy 2 μM / Color 2 μM: drug at 2 μM; for Growth 2 μM / Growth 10 μM / Growth 50 μM: PAO581 on PIA; for Growth 10 μM / Mucoidy 10 μM / Color 10 μM: drug at 10 μM; for Growth 50 μM / Mucoidy 50 μM / Color 50 μM: drug at 50 μM; for Mucoidy 10 μM / Mucoidy 50 μM / Mucoidy 2 μM: PAO581 with pLP170-PalgD-lacZ on PIA + X-gal; for Color 10 μM / Color 50 μM / Color 2 μM: X-gal colour of PalgD-lacZ reporter, 'Light' wraps to 'Light Blue'
[2] = Adverse effects after nebulization in mice; assay type: in vivo, C57BL/6 mice; conditions: single nebulized dose of 5 ml of 100% DMSO; C57BL/6 mice (n=8)
Protocol: Drug Nebulization. C57BL/6 mice (n=8) were first exposed to 5 mL DMSO for 10 minutes to determine any adverse effects that may occur from using DMSO. Mice (n=16) were then exposed to TOB in 0.225% saline or RFX in DMSO via nebulization until the 5 mL drug mixture was depleted—typically 10-15 minutes. Nebulization was conducted using the pressure-based nebulizer and chamber purchased from Kent Scientific (Torrington, Conn.). TOB was nebulized at concentrations of 100 mg (n=4) or 400 mg (n=4) in 5 mL of 0.225% saline. RFX was nebulized at concentrations of 100 mg (n=4) or 400 mg (n=4) in 5 ml of 100% dimethyl sulfoxide. Mice were sacrificed immediately after nebulization via CO2 chamber. Lungs were then collected and homogenized. TOB concentrations were measured using ELISA. RFX concentrations were measured via HPLC.
The potential adverse effects of using DMSO were first assessed by nebulizing DMSO alone to a group of C57BL/6 mice (n=8). This type of mice was used due to their natural resistance against infection based on our previous studies. […] To determine the dosage of each drug received by the mice, the lungs were homogenized and drug concentrations of TOB and RFX were determined via ELISA and HPLC, respectively. […] The droplet size for both TOB and RFX were determined to be identical with the average droplet size for TOB and RFX being 5.07 μm and 5.02 μm, respectively. […]

Structure (SMILES) | Growth 2 μM [1] | Growth 10 μM [1] | Growth 50 μM [1] | Mucoidy 10 μM [1] | Color 10 μM [1] | Mucoidy 50 μM [1] | Color 50 μM [1] | Mucoidy 2 μM [1] | Color 2 μM [1] | adverse effects [2]
C[C@H]1COc2c(C3(N)CC3)c(F)cc3c(=O)c(C(=O)O)cn1c23 [Pazufloxacin] | Inhibited | Inhibited | Inhibited |  |  |  |  |  |  | 
CN1CCN(c2c(F)cc3c(=O)c(C(=O)O)cn4c3c2SCC4)CC1 [Rufloxacin Monohydrate] |  | Yes | Yes | High | Blue | Inhibited | Light |  |  | 
NC1CCN(c2nc3c(cc2F)c(=O)c(C(=O)O)cn3-c2ccc(F)cc2F)C1 (stereo not drawn) [Tosufloxacin Tosilate] | Inhibited | Inhibited | Inhibited |  |  |  |  |  |  | 
CC[C@H]1OC(=O)[C@H](C)[C@@H](O[C@H]2C[C@@](C)(OC)[C@@H](O)[C@H](C)O2)[C@H](C)[C@@H](O[C@@H]2O[C@H](C)C[C@H](N(C)C)[C@H]2O)[C@](C)(OC)C[C@@H](C)C(=O)[C@H](C)[C@@H](O)[C@]1(C)O [Clarithromycin] | Yes | Reduced | Yes | High | Blue | Inhibited | Light | High | Blue | 
COc1c(N2C[C@@H]3CCCN[C@@H]3C2)c(F)cc2c(=O)c(C(=O)O)cn(C3CC3)c12 [Moxifloxacin Hydrochloride] | Reduced | Inhibited | Inhibited |  |  |  |  | Reduced | Light | 
C[S+](C)[O-] [DMSO, dimethyl sulfoxide] |  |  |  |  |  |  |  |  |  | no adverse effects
CCCCCCCCCOc1ccc2[nH]cc(CCN)c2c1 [5-Nonyloxyltryptamine] |  | Yes | Reduced | High | Blue | High | Blue |  |  | 
CO[C@H]1/C=C/O[C@@]2(C)Oc3c(C)c(O)c4c(O)c(c(/C=N/N5CCN(C6CCCC6)CC5)c(O)c4c3C2=O)NC(=O)/C(C)=C\C=C\[C@H](C)[C@H](O)[C@@H](C)[C@@H](O)[C@@H](C)[C@H](OC(C)=O)[C@@H]1C [Rifapentine] | Yes | Reduced | Inhibited | Reduced | Light |  |  | High | Blue | 
CCN1CCN(c2cc3c(cc2F)c(=O)c(C(=O)O)cn3C2CC2)CC1 [Enrofloxacin] | Inhibited | Inhibited | Inhibited |  |  |  |  |  |  | 
CO[C@H]1/C=C/O[C@@]2(C)Oc3c(C)c(O)c4c(c3C2=O)C2=NC3(CCN(CC(C)C)CC3)NC2=C(NC(=O)/C(C)=C\C=C\[C@H](C)[C@H](O)[C@@H](C)[C@@H](O)[C@@H](C)[C@H](OC(C)=O)[C@@H]1C)C4=O [Rifabutin] | Reduced | Inhibited | Inhibited |  |  |  |  | High | Light | 
CCCCCCNC(=O)n1cc(F)c(=O)[nH]c1=O [Carmofur] | Yes | Reduced | Reduced | Inhibited | Clear | Inhibited | Clear | High | Light | 
